Reference: patent US6960594B2, “Thiophene and furan 2,5-dicarboxamides useful in the treatment of cancer” (Shire BioChem Inc., priority 1998, dated 2005)
Where two headings read alike, the source gives them in different places.

Tests used:
HT29 = experiment: Cell proliferation and cytotoxicity MTT assay, HT29; type: cell-based
Method: (§1) The wells of microtiter plates were seeded with 2000 cells/well T24, 2500 cells/well HT29 or 5000 cells/well HMVEC (Cell Systems) in 100 uL, followed by an overnight culture for cell adhesion. The next day, the media is supplemented with 100 uL of 10-fold dilution of compound of interest starting at 10 uM. Following culture for 72 hours, 3-(4,5-dimethyl-2-thiazolyl)-2,5-diphenyltetrazolium bromide (MTT; Sigma) at 2 mg/mL was added to each well (50 uL/well) and further incubated for 4 hours at 37° C. The medium was flicked out and 200 uL of a 1:1 solution of ethanol:acetone followed by 25 uL of glycine buffer (0.1 M glycine, 0.1M NaCl, pH 10.5) is added and the color measured by the absorbance at 570 nm.

placental αvβ3 = target: T1, placental αvβ3 (Homo sapiens, UniProt P05106+P06756); experiment: Fibrinogen binding to immobilized αvβ3
T1 construct: placental αvβ3 at 0.5 ug/mL; from tissue; host or cells: placenta
Method: (§2) The wells of plastic microtiter plates were coated overnight at 4° C. with purified active αIIbβ3 (Calbiochem) or placental αvβ3 at 0.5 ug/mL (100 uL/well) in a buffer containing 150 mM NaCl, 20 mM Tris, pH 7.4, 1 mM MgCl2, 0.2 mM MnCl2, and including 1 mM CaCl2 for αIIbβ3. Blocking of nonspecific sites was achieved by incubating the wells with 35 mg/mL bovine serum albumin (BSA) for at least 2 hours at 37° C. Biotinylated-fibrinogen (10 nM) was added in 0.2 mL binding buffer (100 mM NaCl, 50 mM Tris, pH 7.4, 1 mM MgCl2, 0.2 mM MnCl2 and 1 mg/mL BSA including 1 mM CaCl2 for αIIbβ3) to the wells in triplicate in the absence or presence of increasing concentrations of compounds of interest (0.001-100 uM) and further incubated for 2 hours at 37° C. Nonbound fibrinogen was removed by five washes with binding buffer. Avidin conjugated to alkaline phosphatase (Sigma), diluted in binding buffer, was added and incubated for two hours at 37° C. The plates were washed five times with binding buffer, and after addition of the substrate PNPP (Pierce), the enzyme activity was measured by the absorbance at 405 nm.

[1] = tested on: Chick chorioallantoic membrane (CAM) capillary formation driven by VPF/VEGF165; experiment: Chick chorioallantoic membrane (CAM) mesh assay; type: in vivo, chicken; conditions: significant if >25%
Method: Fertilized white leghorn chicken eggs (SPAFAS Inc., Norwich, Conn.) were received at day 0 and incubated for 3 days at 37 C with constant humidity. On day 3, eggs were rinsed with 70% ethanol and opened into 100 mm^2 tissue culture coated Petri dishes under aseptic conditions. The embryos were then returned to a humidified 38 C incubator for 7-9 additional days.
Vitrogen (Collagen Biomaterials, Palo Alto, Calif.) at a final concentration of 0.73 mg/mL and Matrigel (Becton Dickinson, Bedford, Mass.) at a final concentration of 10 mg/mL was directly pipetted onto Nylon meshes with 250 μm^2 openings which were cut into 4 mm×4 mm squares and autoclaved. Polymerization of meshes were under aseptic conditions, on bacteriological Petri dishes. The polymerization conditions for each substrate were identical; after mixing with or without 250 μg of VPF/VEGF165 (Peprotech, Rocky Hill, N.J.) and/or compounds of interest, 40 μL were pipetted onto each mesh in a bacteriological Petri dish. The Petri dish was placed in a humidified 37 C incubator with 5% CO2 for 30 minutes to allow polymerization followed by an incubation at 4° C. for 2 hours.
In a tissue culture enclosure, meshes were placed onto the periphery of the CAM of a day 12-14 embryo, excluding areas containing major vessels. The embryos were then returned to the humidified 38° C. incubator with 3% CO2 for 24 to 48 additional hours.
Embryos were removed from the incubator and meshes were viewed under a dissecting microscope for gross evaluation. Injection of 400 μL FITC dextran, MW 2,000,000 (Sigma, St. Louis, Mo.) through glass microcapillary tubes by infusion into the umbilical vein was performed at a rate of 200 μl per minute. The FITC dextran was allowed to circulate for 5 minutes and 3.7% formaldehyde in PBS was applied directly on each mesh. The embryos were then incubated at 40° C. for 5 minutes and the meshes were dissected off the CAM and fixed in 3.7% formaldehyde for 10 minutes to overnight.
After fixation, meshes were mounted on slides with 90% glycerol in PBS and visualized on an inverted fluorescence microscope. A Nikon Diaphot with a Sony DXC-151A camera attached to the side port was used for capture of images and analysis was with the NIH Image 1.61 software program. For each mesh, 5 random staggered images (approximately 600 μm each) were captured. The areas of high intensity were highlighted and measured. Results are expressed as ability to suppress capillary formation after subtraction from negative control. Values were calculated as a inhibition, considering 100% the capillary density achieved by VPF in the presence of vitrogen alone minus the bakground levels in the absence of VPF. Negative values indicated angiogenic stimulation above the VPF positive control.

αvβ3 = target: T2, αvβ3 (Homo sapiens, UniProt P05106+P06756); experiment: Cell adhesion assay, K562-tr on osteopontin; type: cell-based
T2 construct: expressed in transfected cells; host or cells: K562
Method: (§3) The wells of 96-well plates (Immunolon) were coated, by incubation overnight at 4° C., with 5 ug/mL vitronectin, 2 ug/mL osteopontin, or fibronectin or 10 mg/mL BSA in PBS. The protein solution was flicked out and the wells were blocked with 10 mg/mL BSA (0.1 mL) for 1-2 hours at 37° C. […] Cells were lifted with trypsin-EDTA and washed two times with Hank's balanced salt solution minus cations (Sigma) supplemented with 1 mM MgCl2 Cells (75,000 cells/well) were added to coated plates in triplicate and allowed to attach at 37° C. for 1 hour in the presence or absence of specific antibodies (5 ug/mL) or 10-fold dilutions of compounds of interest starting at 10 uM. Nonadherent cells were removed by gentle washing twice with PBS. The adherent cells were solubilized with 1% triton x-100 and detected using a fluorescence plate reader (DYNEX Technologies). The number of attached cells was calculated based upon standard curves for each cell line used in the experiment.

GP IIb-IIIa (αIIbβ3) = target: T3, GP IIb-IIIa (αIIbβ3) (Homo sapiens, UniProt P05106+P08514); experiment: Fibrinogen binding to immobilized GP IIb-IIIa (αIIbβ3)
T3 construct: purchased Calbiochem
Method: as §2

αvβ5 = target: T4, αvβ5 (Homo sapiens, UniProt P06756+P18084); experiment: Cell adhesion assay, HT29 on vitronectin; type: cell-based
T4 construct: Cells HT29, K562, or K562 transfected with αvβ3; endogenous in cells; host or cells: HT29
Method: as §3

α5β1 = target: T5, α5β1 (Homo sapiens, UniProt P05556+P08648); experiment: Cell adhesion assay, K562 on fibronectin; type: cell-based; conditions: K562 cells, adhesion to fibronectin, 1 hour
T5 construct: Cells HT29, K562, or K562 transfected with αvβ3; endogenous in cells; host or cells: K562
Method: The wells of 96-well plates (Immunolon) were coated, by incubation overnight at 4° C., with 5 ug/mL vitronectin, 2 ug/mL osteopontin, or fibronectin or 10 mg/mL BSA in PBS. The protein solution was flicked out and the wells were blocked with 10 mg/mL BSA (0.1 mL) for 1-2 hours at 37° C. Cells HT29, K562, or K562 transfected with αvβ3 (Blystone et al., 1994) were loaded with a fluorescent marker, 5-chloromethylfluorescein diacetate (Molecular Probes, Eugene, Oreg.) for 1 hour at 37° C., then incubated in fresh medium without the fluorescent marker for 1 hour. Cells were lifted with trypsin-EDTA and washed two times with Hank's balanced salt solution minus cations (Sigma) supplemented with 1 mM MgCl2 Cells (75,000 cells/well) were added to coated plates in triplicate and allowed to attach at 37° C. for 1 hour in the presence or absence of specific antibodies (5 ug/mL) or 10-fold dilutions of compounds of interest starting at 10 uM. Nonadherent cells were removed by gentle washing twice with PBS. The adherent cells were solubilized with 1% triton x-100 and detected using a fluorescence plate reader (DYNEX Technologies). The number of attached cells was calculated based upon standard curves for each cell line used in the experiment. Non-specific cell attachment (attachment to wells coated with BSA) was always less than 5%.

HMVEC = experiment: Cell proliferation and cytotoxicity MTT assay, HMVEC; type: cell-based; conditions: 72 hours culture
Method: as §1

T3 sequence (P08514 32-887 limits assumed): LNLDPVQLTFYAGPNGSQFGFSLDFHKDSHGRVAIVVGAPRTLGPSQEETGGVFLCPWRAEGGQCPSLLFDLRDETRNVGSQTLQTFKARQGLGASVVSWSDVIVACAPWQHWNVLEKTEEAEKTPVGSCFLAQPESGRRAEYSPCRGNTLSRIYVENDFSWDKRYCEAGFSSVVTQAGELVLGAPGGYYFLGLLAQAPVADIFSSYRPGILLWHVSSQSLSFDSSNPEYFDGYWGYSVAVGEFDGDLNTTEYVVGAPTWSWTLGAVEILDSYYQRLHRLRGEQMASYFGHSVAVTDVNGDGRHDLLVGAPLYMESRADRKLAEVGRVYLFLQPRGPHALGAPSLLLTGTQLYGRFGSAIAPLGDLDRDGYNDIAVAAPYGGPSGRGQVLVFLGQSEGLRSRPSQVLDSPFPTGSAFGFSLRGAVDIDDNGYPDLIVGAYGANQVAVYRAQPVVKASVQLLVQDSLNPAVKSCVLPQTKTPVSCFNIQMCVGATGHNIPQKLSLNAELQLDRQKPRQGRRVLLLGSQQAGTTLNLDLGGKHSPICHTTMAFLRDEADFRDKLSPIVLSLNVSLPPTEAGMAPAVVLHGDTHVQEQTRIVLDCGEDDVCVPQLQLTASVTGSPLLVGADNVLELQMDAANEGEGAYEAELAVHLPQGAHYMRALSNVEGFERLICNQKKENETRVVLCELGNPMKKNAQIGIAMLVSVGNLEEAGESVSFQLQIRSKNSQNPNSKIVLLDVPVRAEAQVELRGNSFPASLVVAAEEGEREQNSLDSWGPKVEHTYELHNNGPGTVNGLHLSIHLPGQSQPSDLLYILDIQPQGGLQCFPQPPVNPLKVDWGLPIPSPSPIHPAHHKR
T3 sequence (P08514 891-1039 partner limits assumed): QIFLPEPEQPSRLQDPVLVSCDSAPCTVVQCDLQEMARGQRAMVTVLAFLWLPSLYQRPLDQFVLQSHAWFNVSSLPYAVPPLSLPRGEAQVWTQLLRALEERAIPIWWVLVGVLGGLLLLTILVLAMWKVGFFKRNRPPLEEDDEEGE
T3 sequence (P05106 27-788): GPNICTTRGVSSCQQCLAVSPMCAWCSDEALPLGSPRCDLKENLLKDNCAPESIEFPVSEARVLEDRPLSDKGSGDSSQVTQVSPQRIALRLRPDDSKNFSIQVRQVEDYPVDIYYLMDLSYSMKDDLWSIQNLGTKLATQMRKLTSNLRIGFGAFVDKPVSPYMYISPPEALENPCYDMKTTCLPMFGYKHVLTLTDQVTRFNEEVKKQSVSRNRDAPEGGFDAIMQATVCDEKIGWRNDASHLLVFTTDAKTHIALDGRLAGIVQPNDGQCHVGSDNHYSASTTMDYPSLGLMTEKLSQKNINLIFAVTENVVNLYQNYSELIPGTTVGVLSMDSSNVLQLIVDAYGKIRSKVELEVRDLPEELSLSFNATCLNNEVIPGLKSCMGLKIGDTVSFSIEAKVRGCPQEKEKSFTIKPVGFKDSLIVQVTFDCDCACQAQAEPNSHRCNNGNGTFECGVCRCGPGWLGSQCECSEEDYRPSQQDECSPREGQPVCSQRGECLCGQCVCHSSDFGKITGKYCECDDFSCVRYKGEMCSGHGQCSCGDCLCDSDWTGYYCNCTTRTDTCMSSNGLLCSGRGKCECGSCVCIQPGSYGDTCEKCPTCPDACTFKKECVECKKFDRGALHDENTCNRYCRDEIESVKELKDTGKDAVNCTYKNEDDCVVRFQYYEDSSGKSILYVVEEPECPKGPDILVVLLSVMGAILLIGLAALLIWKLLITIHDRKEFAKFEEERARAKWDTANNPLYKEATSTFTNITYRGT
T2 sequence (P06756 31-889 limits assumed): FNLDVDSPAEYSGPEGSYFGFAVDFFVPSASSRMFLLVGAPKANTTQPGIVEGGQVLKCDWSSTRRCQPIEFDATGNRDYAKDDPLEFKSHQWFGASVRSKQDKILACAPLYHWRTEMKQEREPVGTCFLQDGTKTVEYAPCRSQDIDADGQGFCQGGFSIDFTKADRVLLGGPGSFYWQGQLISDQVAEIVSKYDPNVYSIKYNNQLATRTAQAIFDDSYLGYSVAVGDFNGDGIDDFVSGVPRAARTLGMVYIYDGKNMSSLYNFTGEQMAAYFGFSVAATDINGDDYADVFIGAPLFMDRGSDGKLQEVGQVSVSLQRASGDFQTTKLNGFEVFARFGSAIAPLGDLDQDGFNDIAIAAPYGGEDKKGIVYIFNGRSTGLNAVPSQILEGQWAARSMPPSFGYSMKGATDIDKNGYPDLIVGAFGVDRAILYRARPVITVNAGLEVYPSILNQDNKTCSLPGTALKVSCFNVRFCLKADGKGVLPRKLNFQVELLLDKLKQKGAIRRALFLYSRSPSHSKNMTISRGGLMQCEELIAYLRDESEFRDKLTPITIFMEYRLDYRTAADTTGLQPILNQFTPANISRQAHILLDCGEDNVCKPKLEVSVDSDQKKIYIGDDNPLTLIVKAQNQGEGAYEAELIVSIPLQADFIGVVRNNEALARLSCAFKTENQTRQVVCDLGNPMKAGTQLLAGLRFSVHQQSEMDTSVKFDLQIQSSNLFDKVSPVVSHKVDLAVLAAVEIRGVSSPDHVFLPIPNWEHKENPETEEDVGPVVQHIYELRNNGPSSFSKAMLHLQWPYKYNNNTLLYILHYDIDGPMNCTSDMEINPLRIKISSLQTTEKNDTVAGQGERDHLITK
T2 sequence (P06756 891-1048 partner limits assumed): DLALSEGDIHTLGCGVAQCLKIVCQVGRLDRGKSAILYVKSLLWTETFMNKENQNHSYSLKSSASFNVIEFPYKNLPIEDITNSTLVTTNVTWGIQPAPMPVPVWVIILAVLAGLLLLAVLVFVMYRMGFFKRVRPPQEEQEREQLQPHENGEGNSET
T2 sequence (P05106 27-788): as the sequence (P05106 27-788) above
T4 sequence (P06756 31-889 limits assumed): as the sequence (P06756 31-889 limits assumed) above
T4 sequence (P06756 891-1048 partner limits assumed): as the sequence (P06756 891-1048 partner limits assumed) above
T4 sequence (P18084 24-799): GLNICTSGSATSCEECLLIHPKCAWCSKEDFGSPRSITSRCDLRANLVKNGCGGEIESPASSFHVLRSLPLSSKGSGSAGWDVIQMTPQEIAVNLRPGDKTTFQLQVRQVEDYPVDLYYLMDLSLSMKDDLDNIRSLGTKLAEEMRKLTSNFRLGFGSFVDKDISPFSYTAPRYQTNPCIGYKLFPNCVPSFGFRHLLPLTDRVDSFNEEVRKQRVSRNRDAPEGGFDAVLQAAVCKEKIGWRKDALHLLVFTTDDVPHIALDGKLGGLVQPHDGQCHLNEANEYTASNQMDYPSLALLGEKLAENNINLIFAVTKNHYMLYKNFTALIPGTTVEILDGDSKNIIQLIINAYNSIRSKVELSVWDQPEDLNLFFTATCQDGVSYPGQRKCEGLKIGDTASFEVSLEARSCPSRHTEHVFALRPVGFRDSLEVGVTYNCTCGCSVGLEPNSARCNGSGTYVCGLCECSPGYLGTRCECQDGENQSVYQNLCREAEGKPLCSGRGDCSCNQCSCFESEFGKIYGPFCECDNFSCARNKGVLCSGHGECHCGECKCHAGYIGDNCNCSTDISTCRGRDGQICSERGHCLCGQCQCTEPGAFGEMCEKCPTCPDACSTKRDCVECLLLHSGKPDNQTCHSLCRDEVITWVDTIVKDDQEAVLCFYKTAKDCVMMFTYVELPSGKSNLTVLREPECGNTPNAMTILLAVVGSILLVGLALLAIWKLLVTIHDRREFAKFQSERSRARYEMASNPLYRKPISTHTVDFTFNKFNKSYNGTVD
T1 sequence (P06756 31-889 limits assumed): as the sequence (P06756 31-889 limits assumed) above
T1 sequence (P06756 891-1048 partner limits assumed): as the sequence (P06756 891-1048 partner limits assumed) above
T1 sequence (P05106 27-788): as the sequence (P05106 27-788) above

| Compound | IC50 (HT29; Homo sapiens, HT-29, 72 hours culture) [µM] | IC50 (placental αvβ3) [nM] | % of inhibition at 33 μg/mesh in the presence of VEGF [1] [%] | IC50 (αvβ3) [nM] | IC50 (GP IIb-IIIa (αIIbβ3)) [nM] | IC50 (αvβ5) [nM] | IC50 (α5β1) [µM] | IC50 (HMVEC; HMVEC) [nM] | IC50 (HT29; 72 hours culture) [µM] | IC50 (placental αvβ3; biotinylated-fibrinogen (10 nM) binding to immobilized αvβ3, read-out: IC50 αvβ3) [nM] | IC50 (αvβ3; K562 transfected with αvβ3, adhesion to osteopontin, 1 hour, read-out: IC50 K562-tr Osteopontin (αvβ3)) [nM] | IC50 (GP IIb-IIIa (αIIbβ3); biotinylated-fibrinogen (10 nM) binding to immobilized αIIbβ3, read-out: IC50 αIIbβ3) [nM] | IC50 (αvβ5; HT29 cells, adhesion to vitronectin, 1 hour, read-out: IC50 HT29 Vitronectin (αvβ5)) [nM] | IC50 (HMVEC) [nM] |
| --- | --- | --- | --- | --- | --- | --- | --- | --- | --- | --- | --- | --- | --- | --- |
| N=C(N)NCCNC(=O)c1ccc(C(=O)NCC(Nc2ncccn2)C(=O)O)s1.O=C(O)C(F)(F)F.O=C(O)C(F)(F)F (stereo not shown) [Compound XXX, 3-{[5-(2-guanidino-ethylcarbamoyl)-thiophene-2-carbonyl]-amino}-2-(pyrimidin-2-ylamino)-propionic acid bis trifluoroacetic acid salt] | > 10 | 150 | 31 | 3400 | 690 | > 10000 | > 10 | > 10000 | – | – | – | – | – | – |
| (2S)2-Benzenesulfonylamino-3-[5-(2-guanidinyl-ethylcarbamoyl)-thiophen-2-carbonyl]-amino propionic acid hydrochloride salt [Compound XI] | – | – | 38 | – | – | – | 5.3 | – | 9.9 | 0.58 | 87 | 0.31 | 210 | 870 |
